According to the NIST ThermoML archive (doi:10.1016/j.jct.2016.06.023):

Experiment: mn = molality of the nth substance listed, in mol/kg
Details: 101.3 kPa, Liquid, Vibrating tube method

O=C(O)CC(=O)O [propanedioic acid] + O
mass density [kg/m3]
Details | 313.15 K | 318.15 K | 323.15 K | 328.15 K | 333.15 K | 338.15 K | 343.15 K
m1 = 0.01001 | 992.67 | 990.67 | 988.48 | 986.12 | 983.63 | 980.99 | 978.22
m1 = 0.02001 | 993.03 | 991.04 | 988.85 | 986.5 | 984.01 | 981.37 | 978.59
m1 = 0.03 | 993.37 | 991.39 | 989.19 | 986.83 | 984.34 | 981.69 | 978.9
m1 = 0.03962 | 993.74 | 991.75 | 989.54 | 987.17 | 984.68 | 982.03 | 979.24
m1 = 0.04998 | 994.12 | 992.09 | 989.92 | 987.55 | 985.05 | 982.41 | 979.6
m1 = 0.05936 | 994.45 | 992.44 | 990.24 | 987.86 | 985.36 | 982.72 | 979.92
m1 = 0.06926 | 994.8 | 992.8 | 990.58 | 988.21 | 985.69 | 983 | 980.22
m1 = 0.07949 | 995.16 | 993.16 | 990.94 | 988.56 | 986.05 | 983.39 | 980.58
m1 = 0.08906 | 995.51 | 993.49 | 991.26 | 988.89 | 986.37 | 983.68 | 980.9
m1 = 0.09935 | 995.86 | 993.83 | 991.63 | 989.26 | 986.72 | 984.02 | 981.18
m1 = 0.1984 | 999.32 | 997.27 | 995 | 992.58 | 990.02 | 987.31 | 984.49
m1 = 0.2977 | 1002.76 | 1000.66 | 998.36 | 995.89 | 993.31 | 990.55 | 987.71
m1 = 0.404 | 1006.4 | 1004.17 | 1001.82 | 999.32 | 996.78 | 993.95 | 991.05
m1 = 0.5055 | 1009.9 | 1007.57 | 1005.17 | 1002.63 | 999.91 | 997.16 | 994.29
m1 = 0.6055 | 1013.17 | 1010.78 | 1008.36 | 1005.78 | 1003.1 | 1000.24 | 997.39
m1 = 0.6936 | 1016.02 | 1013.61 | 1011.15 | 1008.54 | 1005.81 | 1002.93 | 1000.21
m1 = 0.7926 | 1019.25 | 1016.73 | 1014.23 | 1011.64 | 1008.99 | 1006 | 1002.97
m1 = 0.891 | 1022.41 | 1019.67 | 1017.35 | 1014.68 | 1011.89 | 1008.94 | 1005.93
m1 = 0.9895 | 1025.39 | 1022.8 | 1020.22 | 1017.49 | 1014.63 | 1011.16 | 1008.49
